For the series the following is noted: 303.15 K; 101.33 kPa; Liquid.

Structures are written as SMILES. Numbers after ± are expanded uncertainties.

For the compound `C1COCO1` [1,3-dioxolane], the mass density is given as 1051.8 ± 1.2 kg/m3, the speed of sound came to 1288.5 ± 2.6 m/s and the viscosity is 0.5487 ± 0.03 mPa·s.
In the same order, the values of `CC(C)(C)O` [2-methylpropan-2-ol] are 775.1 ± 0.9 kg/m3, 1078.8 ± 2.3 m/s and 3.099 ± 0.14 mPa·s.
In the same order, the values of `CC(C)CCO` [3-methylbutan-1-ol] are 803.2 ± 0.9 kg/m3, 1197 ± 2.5 m/s and 3.111 ± 0.14 mPa·s.
For `CCCCO` [butan-1-ol], the mass density is recorded as 802.1 ± 0.9 kg/m3, the speed of sound is on record as 1196.6 ± 2.5 m/s and the viscosity amounted to 2.54 ± 0.11 mPa·s.
In the same order, the values of `CCC(C)O` (centres undefined) [butan-2-ol] are 799.2 ± 0.9 kg/m3, 1168.9 ± 2.4 m/s and 2.339 ± 0.11 mPa·s.
In the same order, the values of `CCO` [ethanol] are 784.4 ± 0.9 kg/m3, 1144.3 ± 2.4 m/s and 0.9675 ± 0.048 mPa·s.
In the same order, the values of `CO` [methanol] are 782.4 ± 0.9 kg/m3, 1088.5 ± 2.3 m/s and 0.5041 ± 0.028 mPa·s.
For `CCCO` [propan-1-ol], the mass density is on record as 795.8 ± 0.9 kg/m3, the speed of sound is reported as 1182.6 ± 2.5 m/s and the viscosity is 1.663 ± 0.078 mPa·s.
In the same order, the values of `CC(C)O` [propan-2-ol] are 777.3 ± 0.9 kg/m3, 1126.6 ± 2.4 m/s and 1.614 ± 0.076 mPa·s.
Consider `O` [water], for which the speed of sound was determined as 1505.2 ± 3 m/s and the viscosity was 0.7975 ± 0.041 mPa·s.
